One data set concerns MDBK cells. Description: Cytotoxicity assay (MTS/PMS). The conditions noted are these: MDBK cells, 3 days. The method, then: (§1) (A) Cytotoxicity. Sub-confluent MDBK cell monolayers grown in 96-well plates were treated with 2-fold serial dilutions of each compound in IM. Mock-treated cells were added as control. Cells were incubated and allowed to proliferate for 3 days at 37°C and 5% CO2. Cell viability was then determined by the MTS/PMS method. (B) Antiviral activity. Sub-confluent MDBK cell monolayers grown in 96-well plates were infected with BVDV NADL (MOI = 0.01) and treated with different concentrations of the compounds. Mock-infected cells and mock-treated infected cells were included as controls in each plate. After 3 days at 37°C and 5% CO2, cell viability was determined by the MTS/PMS method, and the percentage of the viral CPE inhibition was calculated.
(§2) MDBK cells were seeded in 96-well plates at a density of 1 × 10^4 cells per well in GM. After 24 h, the culture medium was removed, monolayers were washed twice with phosphate-buffered saline (PBS), and serial dilutions of the test compounds were made in E-MEM supplemented with donor horse serum (DHS, Gibco, IM) and added. Cultures were incubated for 3 days at 37°C, and then, cell viability was determined by the MTS/PMS method according to the manufacturer's instructions (Promega). After incubation for 3 h at 37°C and 5% CO2, the absorbance was determined at 490 nm. The 50% cytotoxic concentration (CC50) was defined as the concentration of compound that inhibited the proliferation of exponentially growing cells by 50% and was calculated by interpolation in dose–response curves.

Data set [1] can be described thus: Cytotoxicity assay (MTS/PMS). The conditions noted are these: bovine, MDBK cells. As to the method: as §1, §2
A further data set has as its system BVDV type 1 NADL strain. Description: Anti-BVDV assay (CPE reduction, MTS/PMS). Format: cell-based, Bovine viral diarrhea virus. The conditions noted are these: for EC50: BVDV NADL in MDBK cells, MOI 0.01, 3 days, reduces viral CPE by 50%, Inactive: <50% of inhibition of CPE at MNCC. The method, then: (A) Cytotoxicity. […] Mock-treated cells were added as control. […] (B) Antiviral activity.
Madin-Darby bovine kidney cells (MDBK NBL-1; ATCC CCL-22) were grown in Eagle's Minimum Essential Medium (E-MEM), supplemented with 10% biotechnological fetal bovine serum (Internegocios, Argentina) (GM) at 37°C and 5% CO2. The BVDV type 1 NADL strain, cytopathic biotype (BVDV-1, ATCC VR 534), was provided by Dr. Laura Weber (INTA Castelar, Argentina).
Then, serial dilutions of the test compounds in IM were added. […] After incubation for 3 days at 37°C and 5% CO2, the culture medium was removed, cell monolayers were washed twice with PBS, and IM supplemented with MTS/PMS was added to each well. The absorbance of each well was read at 490 nm. The EC50 was defined as the concentration of compound that prevented 50% of the virus-induced CPE and was calculated by interpolation in dose–response curves.

Data set [2] can be described thus: Shake-flask solubility (UV-Vis). The format is physicochemical. The conditions noted are these: thermodynamic from solid. The method, then: Verapamil was used as internal control. More detailed information is available in the Supplementary Material.
(§3) UV-Visible spectrums were measured with a UV3600 UV -Vis-NIR spectrophotometer in a range of 500 -200 nm using a quartz cuvette. The measurements were determined at λ values corresponding to the maximum of absorption . Baselines were determined with MeOH :media (1:1) mixture . Sample concentrations were determined using maximum absorption value s. All compounds were tested in […]
(§4) Preparation of calibration curve
(§5) From this solution, different volumes were combined with MeOH:media (1:1) mixture to obtain concentrations between 2.0 – 40.0 µg/mL. […]
(§6) intestinal fluid (SIF, pH 6.8) or phosphate buffered saline solution (PBS, pH 7.4) was added. The vial contents were mixed at 1500 rpm at 37 °C for 24 h and then incubated at 37 °C for 24 h without stirring. Samples were filtered (0.2 μm, Sterile Acrodisc® 13, GelmanScience) before analysis.
(§7) The filtered solutions were diluted in MeOH:media (1:1) mixture to achieved final concentrations of 0.01 (SGF), 0.02 (SIF) and 0.04 µg/mL (PBS). Verapamil and pr ocaine were used as internal […]
(§8) DMSO and water/DMSO (98:2) stability […]
were measured in a range of 500-200 nm using a quartz cuvette and the absorption was determined at 331 nm. Samples with 1.0 mg of 1.9 in 1 mL of DMSO or water/DMSO (98:2) mixture were prepared, and they were kept at room temperature without stir ring. Independent samples were measured every 1 week over 5 weeks. For the measurements, solutions were diluted at 1/100 in DMSO and 1/50 in water:DMSO (98:2) mixture. The values in the chart are the mean of three

The nature of data set [3]: DMSO and water/DMSO (98:2) stability (UV-Vis). The conditions noted are these: room temperature. The format is physicochemical. The method, then:
as §3, §4, §5, §6, §7, §8
were measured in a range of 500-200 nm using a quartz cuvette and the absorption was determined at 331 nm. Samples with 1.0 mg of 1.9 in 1 mL of DMSO or water/DMSO (98:2) mixture were prepared, and they were kept at room temperature without stir ring. Independent samples were measured every 1 week over 5 weeks. […]

A short description of data set [4]: Bovine plasma stability (HPLC-MS). Format: in vitro ADME. The conditions noted are these: 120 min incubation, read-out: Stability t1/2 Bovine plasma. The method, then: (§9) Stability assays were performed according to the procedure described in a previous work (Leal et al., [2019]). Samples were taken at different incubation times and analyzed by high-performance liquid chromatography–mass spectrometry (HPLC–MS) using a Waters Alliance e2695 system (Waters Corporation, Milford, MA, USA) fitted with a Phenomenex Kinetex® XB-C18 column (150 × 4.6 mm, 5-μm particle size, Phenomenex Inc., Torrance, CA, USA) coupled to a Waters SQD2 single quadrupole mass spectrometer with an ESI source. A gradient elution was applied using 40% water and 0.1% acetic acid (mobile phase A) and 40% methanol (mobile phase B), with the following program: 0–3 min 40% B; 3–7 min 40–90% B; and 7–20 min 90% B. The flow rate was kept constant at 0.35 ml min^−1. […]
(§10) Compound 1.9 was selected to perform in vitro physicochemical studies (solubility and stability). The solubility (S) was evaluated at SGF (pH 1.2), SIF (pH 6.8), and PBS solution (pH 7.4), employing the shake-flask method with UV spectroscopy (Bollini et al., [2013]). […] The stability was evaluated by calculating the percentage of remaining drug (HPLC–MS) after contact with different incubation media (SIF, SGF, PBS, mouse, and bovine plasma) for 120 min. […] Neither compound modification nor degradation was detected after the different incubation periods. […]

A short description of data set [5]: Mouse plasma stability (HPLC-MS). The format is in vitro ADME. To be noted: mouse/murine plasma, 120 min incubation; read-out: Stability t1/2 Mouse/murine plasma. As to the method:
as §9, §10

Data set [6] can be described thus: Stability in SGF, SIF, PBS (HPLC-MS). The format is physicochemical. As to the method: Stability assays were performed according to the procedure described in a previous work (Leal et al., [2019]). Samples were taken at different incubation times and analyzed by high-performance liquid chromatography–mass spectrometry (HPLC–MS) using a Waters Alliance e2695 system (Waters Corporation, Milford, MA, USA) fitted with a Phenomenex Kinetex® XB-C18 column (150 × 4.6 mm, 5-μm particle size, Phenomenex Inc., Torrance, CA, USA) coupled to a Waters SQD2 single quadrupole mass spectrometer with an ESI source. A gradient elution was applied using 40% water and 0.1% acetic acid (mobile phase A) and 40% methanol (mobile phase B), with the following program: 0–3 min 40% B; 3–7 min 40–90% B; and 7–20 min 90% B. The flow rate was kept constant at 0.35 ml min^−1. After each sample injection, the gradient was returned to its initial conditions in 16 min. The injection volume was 5 μl. The column temperature was 35°C. The mass spectrometer was operated in positive ion mode with a probe capillary voltage of 2.5 kV. The sampling cone voltage was set to 35.0 V. The source and desolvation gas temperatures were set at 150 and 350°C, respectively. The nitrogen gas desolvation flow rate was 600 L h^−1, and the cone gas flow rate was 10 L h^−1. The mass spectrometer was calibrated across the range of m/z 20–2,023 with a sodium and cesium iodide solution. Data were acquired in scan mode with a scan duration of 0.2 s and in SIR mode with unit resolution. Data acquisition and processing were carried out using MassLynx software, version 4.1. […]
as §10

Values after ≈ are worked out from the molar mass of the structure shown. Values joined by “and” are separate entries in the source; they are usually repeats but may differ in a detail not shown here. Equal entries are not always repeated. Where two headings read alike, the source gives them in different places.

Broadly, the CC50 is the concentration that lowers cell viability or growth by half. Lower therefore signals greater toxicity to the cells. As usually defined, the EC50 is the concentration giving half of the maximal effect. What is called solubility is how much of the substance goes into solution per volume. Consider `OCCN1CCN(c2nc(-c3ccccc3)nc3ccccc23)CC1` [Compound 1.9, 2-[4-(2-Phenylquinazolin-4-yl)piperazin-1-yl]ethanol], for which the “MNCC (maximum non-cytotoxic concentration)” value with MDBK cells was 12.5 µM and 12.5 ± 2.4 µM. The half-maximal cytotoxic concentration (CC50) at 3 days in data set [1] amounted to 32000 ± 1900 nM. Besides, the EC50 in the data set with BVDV type 1 NADL strain (read-out: EC50) is 1800 ± 400 nM; in the data set with BVDV type 1 NADL strain (Bovine viral diarrhea virus isolates and strains, MDBK, 72 h) it was 1700 ± 400 nM. For the same compound, in the data set with BVDV type 1 NADL strain (in vitro selectivity index, MDBK cells / BVDV NADL), the “SI (CC50/EC50)” value amounted to 17.8. Further, the solubility at 24 h in data set [2] (phosphate buffered saline (PBS), aqueous buffer, PBS pH 7.4, 37 °C, read-out: Solubility PBS) was 300 ± 100 µg/mL (≈ 897 µM); in data set [2] (simulated gastric fluid (SGF), simulated gastric fluid pH 1.2, 37 °C, read-out: Solubility SGF) it was 8700 ± 400 µg/mL (≈ 26000 µM); in data set [2] (simulated intestinal fluid (SIF), fassgf or other biorelevant, simulated intestinal fluid pH 6.8, 37 °C, read-out: Solubility SIF) it was 400 ± 200 µg/mL (≈ 1200 µM). The “time stable in DMSO” value in data set [3] (1.0 mg/mL in DMSO) was ≥ 5 weeks. The “time stable in water/DMSO (98:2)” value in data set [3] (1.0 mg/mL in water/DMSO (98:2)) was ≥ 5 weeks. For the same compound, the half-life in data set [4] was > 2 h; in data set [5], > 2 h; in data set [6] (PBS pH 7.4, 120 min incubation, read-out: Stability t1/2 PBS) it was > 2 h; in data set [6] (simulated gastric fluid (SGF), SGF pH 1.2, 120 min incubation, read-out: Stability t1/2 SGF) it was > 2 h; in data set [6] (simulated intestinal fluid (SIF), SIF pH 6.8, 120 min incubation, read-out: Stability t1/2 SIF), > 2 h.
